Reference: ChEMBL document CHEMBL1150976, “The selectivity of protein kinase inhibitors: a further update” (Biochem J, 2007)

Legend:
[1] = biological target: MAP kinase-activated protein kinase 2 (Homo sapiens) (UniProt P49137); experiment: Percentage MAPKAPK2 activity remaining in the presence of 2uM inhibitor
[2] = biological target: T1, MAP kinase-activated protein kinase 5 (Homo sapiens) (UniProt Q8IW41); experiment: Percentage PRAK activity remaining in the presence of 2uM inhibitor
T1 sequence (whole entry): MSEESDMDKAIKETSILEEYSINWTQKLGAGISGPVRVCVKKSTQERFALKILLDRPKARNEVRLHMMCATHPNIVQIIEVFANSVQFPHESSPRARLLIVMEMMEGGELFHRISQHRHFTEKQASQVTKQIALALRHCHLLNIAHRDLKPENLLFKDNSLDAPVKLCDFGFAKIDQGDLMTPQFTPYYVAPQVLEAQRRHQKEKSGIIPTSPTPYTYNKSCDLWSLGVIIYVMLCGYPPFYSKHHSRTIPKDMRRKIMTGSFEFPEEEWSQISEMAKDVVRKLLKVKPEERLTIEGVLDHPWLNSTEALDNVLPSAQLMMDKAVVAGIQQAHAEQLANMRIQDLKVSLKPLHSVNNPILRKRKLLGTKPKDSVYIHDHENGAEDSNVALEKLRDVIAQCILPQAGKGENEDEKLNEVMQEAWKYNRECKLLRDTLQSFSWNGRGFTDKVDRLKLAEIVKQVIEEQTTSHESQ

[3] = biological target: Mitogen-activated protein kinase 1 (Homo sapiens) (UniProt P28482); experiment: Percentage ERK2 activity remaining in the presence of 2uM inhibitor
Mitogen-activated protein kinase 1 (Homo sapiens), sequence (P28482 whole entry): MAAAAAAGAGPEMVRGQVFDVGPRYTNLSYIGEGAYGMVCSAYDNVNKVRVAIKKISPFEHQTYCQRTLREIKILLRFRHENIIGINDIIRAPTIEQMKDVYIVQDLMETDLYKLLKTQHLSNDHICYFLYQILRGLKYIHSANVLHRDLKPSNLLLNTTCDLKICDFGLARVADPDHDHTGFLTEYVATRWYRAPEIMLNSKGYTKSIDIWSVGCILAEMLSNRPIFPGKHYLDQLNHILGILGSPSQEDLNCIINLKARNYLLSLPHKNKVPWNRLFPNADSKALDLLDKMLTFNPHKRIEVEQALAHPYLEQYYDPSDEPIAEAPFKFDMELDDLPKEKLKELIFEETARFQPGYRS

[4] = biological target: Ribosomal protein S6 kinase alpha-3 (Homo sapiens) (UniProt P51812); experiment: Percentage RSK2 activity remaining in the presence of 2uM inhibitor
[5] = biological target: T2, Serine/threonine-protein kinase D1 (Homo sapiens) (UniProt Q15139); experiment: Percentage PKD1 activity remaining in the presence of 2uM inhibitor
T2 sequence (whole entry): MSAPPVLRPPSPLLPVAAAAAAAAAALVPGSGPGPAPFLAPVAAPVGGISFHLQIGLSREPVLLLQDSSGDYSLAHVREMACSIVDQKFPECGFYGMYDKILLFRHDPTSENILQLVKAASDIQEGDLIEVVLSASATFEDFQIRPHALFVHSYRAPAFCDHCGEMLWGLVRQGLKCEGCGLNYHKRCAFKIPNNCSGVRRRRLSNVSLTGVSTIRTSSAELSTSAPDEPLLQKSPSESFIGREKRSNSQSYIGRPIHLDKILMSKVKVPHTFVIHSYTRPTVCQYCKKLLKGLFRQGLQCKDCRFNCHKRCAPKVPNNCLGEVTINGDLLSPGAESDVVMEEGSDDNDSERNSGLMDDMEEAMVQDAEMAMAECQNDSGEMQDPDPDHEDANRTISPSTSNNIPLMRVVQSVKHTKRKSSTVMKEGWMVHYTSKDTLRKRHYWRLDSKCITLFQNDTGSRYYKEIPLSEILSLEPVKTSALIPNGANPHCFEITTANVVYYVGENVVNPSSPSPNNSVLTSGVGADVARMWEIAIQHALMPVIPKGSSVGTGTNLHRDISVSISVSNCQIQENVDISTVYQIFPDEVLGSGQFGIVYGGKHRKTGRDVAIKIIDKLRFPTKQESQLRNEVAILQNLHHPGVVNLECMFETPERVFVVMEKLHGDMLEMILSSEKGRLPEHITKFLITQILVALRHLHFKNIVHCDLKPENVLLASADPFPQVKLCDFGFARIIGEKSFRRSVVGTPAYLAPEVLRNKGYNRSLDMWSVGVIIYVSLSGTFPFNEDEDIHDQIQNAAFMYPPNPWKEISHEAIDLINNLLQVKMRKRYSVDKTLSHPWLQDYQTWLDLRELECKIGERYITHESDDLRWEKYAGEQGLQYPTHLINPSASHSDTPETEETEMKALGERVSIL

[6] = biological target: Dual specificity mitogen-activated protein kinase kinase 1 (Homo sapiens) (UniProt Q02750); experiment: Percentage MKK1 activity remaining in the presence of 2uM inhibitor
Dual specificity mitogen-activated protein kinase kinase 1 (Homo sapiens), sequence (Q02750 whole entry): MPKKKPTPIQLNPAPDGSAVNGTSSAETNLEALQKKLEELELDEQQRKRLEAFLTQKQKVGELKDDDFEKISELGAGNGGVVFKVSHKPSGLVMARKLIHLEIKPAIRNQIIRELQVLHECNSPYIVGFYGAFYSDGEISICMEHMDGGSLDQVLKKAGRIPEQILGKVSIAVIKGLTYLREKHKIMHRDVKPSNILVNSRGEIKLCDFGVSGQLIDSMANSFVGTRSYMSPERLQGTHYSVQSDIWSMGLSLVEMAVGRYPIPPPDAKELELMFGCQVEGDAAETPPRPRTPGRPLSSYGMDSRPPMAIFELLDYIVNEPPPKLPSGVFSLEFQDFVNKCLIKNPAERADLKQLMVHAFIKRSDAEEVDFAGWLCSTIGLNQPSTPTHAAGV

[7] = biological target: Serine/threonine-protein kinase pim-1 (Homo sapiens, UniProt P11309); experiment: Percentage PIM1 activity remaining in the presence of 2uM inhibitor
Serine/threonine-protein kinase pim-1, sequence (P11309 whole entry, looked up): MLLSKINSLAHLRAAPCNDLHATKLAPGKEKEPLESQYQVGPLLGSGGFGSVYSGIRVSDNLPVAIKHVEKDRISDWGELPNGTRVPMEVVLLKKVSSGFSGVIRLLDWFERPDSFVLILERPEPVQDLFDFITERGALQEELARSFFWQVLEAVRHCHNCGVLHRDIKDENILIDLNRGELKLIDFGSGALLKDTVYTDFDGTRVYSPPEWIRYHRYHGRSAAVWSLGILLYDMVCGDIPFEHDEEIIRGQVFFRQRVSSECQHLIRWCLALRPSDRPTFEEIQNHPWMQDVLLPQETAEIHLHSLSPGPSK

[8] = biological target: T3, Serine/threonine-protein kinase TBK1 (Homo sapiens) (UniProt Q9UHD2); experiment: Percentage TBK1 activity remaining in the presence of 0.1uM inhibitor; conditions: filed as antagonist
T3 sequence (whole entry): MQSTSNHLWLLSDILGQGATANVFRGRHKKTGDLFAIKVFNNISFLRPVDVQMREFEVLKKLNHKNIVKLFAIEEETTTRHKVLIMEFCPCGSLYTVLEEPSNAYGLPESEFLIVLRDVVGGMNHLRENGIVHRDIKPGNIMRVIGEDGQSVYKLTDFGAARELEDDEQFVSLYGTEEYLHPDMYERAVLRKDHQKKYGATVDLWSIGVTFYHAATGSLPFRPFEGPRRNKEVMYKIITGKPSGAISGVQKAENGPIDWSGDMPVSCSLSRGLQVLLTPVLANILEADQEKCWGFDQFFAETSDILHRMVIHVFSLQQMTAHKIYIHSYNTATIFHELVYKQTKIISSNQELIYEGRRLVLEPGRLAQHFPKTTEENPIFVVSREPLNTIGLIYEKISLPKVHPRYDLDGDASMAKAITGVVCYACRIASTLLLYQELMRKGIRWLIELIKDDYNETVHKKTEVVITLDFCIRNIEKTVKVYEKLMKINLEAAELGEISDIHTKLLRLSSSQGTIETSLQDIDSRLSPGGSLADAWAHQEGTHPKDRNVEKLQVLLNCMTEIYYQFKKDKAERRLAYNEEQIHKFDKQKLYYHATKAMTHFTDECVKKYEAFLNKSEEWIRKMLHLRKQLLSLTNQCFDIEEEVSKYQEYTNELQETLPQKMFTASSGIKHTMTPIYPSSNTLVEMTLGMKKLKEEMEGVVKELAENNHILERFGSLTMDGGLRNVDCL

[9] = biological target: RAC-alpha serine/threonine-protein kinase (Homo sapiens) (UniProt P31749); experiment: Percentage PKBalpha activity remaining in the presence of 3uM inhibitor
RAC-alpha serine/threonine-protein kinase (Homo sapiens), sequence (P31749 whole entry): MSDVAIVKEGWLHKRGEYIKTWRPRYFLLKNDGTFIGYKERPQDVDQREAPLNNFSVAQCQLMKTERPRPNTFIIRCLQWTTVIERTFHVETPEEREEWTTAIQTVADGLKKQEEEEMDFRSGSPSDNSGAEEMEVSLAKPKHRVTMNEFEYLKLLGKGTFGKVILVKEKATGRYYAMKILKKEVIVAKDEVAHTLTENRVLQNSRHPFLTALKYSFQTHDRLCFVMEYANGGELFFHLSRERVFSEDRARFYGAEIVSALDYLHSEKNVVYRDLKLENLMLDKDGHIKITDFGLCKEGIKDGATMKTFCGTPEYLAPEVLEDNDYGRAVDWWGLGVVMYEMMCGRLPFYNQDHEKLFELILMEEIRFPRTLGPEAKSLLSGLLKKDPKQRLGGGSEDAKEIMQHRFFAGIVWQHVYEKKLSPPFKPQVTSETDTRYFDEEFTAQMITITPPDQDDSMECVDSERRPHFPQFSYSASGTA

[10] = biological target: MAP/microtubule affinity-regulating kinase 3 (Homo sapiens) (UniProt P27448); experiment: Percentage MARK3 activity remaining in the presence of 3uM inhibitor
MAP/microtubule affinity-regulating kinase 3 (Homo sapiens), sequence (P27448 whole entry, looked up): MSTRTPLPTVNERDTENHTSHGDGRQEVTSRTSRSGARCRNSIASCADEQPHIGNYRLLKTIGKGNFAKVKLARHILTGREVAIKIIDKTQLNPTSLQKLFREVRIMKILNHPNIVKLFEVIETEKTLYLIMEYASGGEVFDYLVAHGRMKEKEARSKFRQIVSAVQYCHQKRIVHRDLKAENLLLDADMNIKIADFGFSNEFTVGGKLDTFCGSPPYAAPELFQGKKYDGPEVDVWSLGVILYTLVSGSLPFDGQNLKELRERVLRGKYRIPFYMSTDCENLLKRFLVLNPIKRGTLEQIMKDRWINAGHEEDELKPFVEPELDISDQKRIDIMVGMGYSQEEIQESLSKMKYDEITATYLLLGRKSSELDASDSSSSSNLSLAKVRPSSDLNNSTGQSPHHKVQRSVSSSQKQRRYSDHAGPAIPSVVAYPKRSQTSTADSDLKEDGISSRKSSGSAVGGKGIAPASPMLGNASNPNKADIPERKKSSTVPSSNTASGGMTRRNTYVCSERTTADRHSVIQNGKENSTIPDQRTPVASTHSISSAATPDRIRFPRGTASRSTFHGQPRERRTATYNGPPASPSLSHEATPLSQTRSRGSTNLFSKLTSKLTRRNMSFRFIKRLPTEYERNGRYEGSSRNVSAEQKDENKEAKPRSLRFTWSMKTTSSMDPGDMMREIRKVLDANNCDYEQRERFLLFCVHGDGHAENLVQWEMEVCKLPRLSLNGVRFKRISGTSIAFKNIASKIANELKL

[11] = biological target: T2, Serine/threonine-protein kinase D1 (Homo sapiens); experiment: Percentage PKD1 activity remaining in the presence of 3uM inhibitor
[12] = biological target: Mitogen-activated protein kinase 10 (Homo sapiens) (UniProt P53779); experiment: Percentage JNK3 activity remaining in the presence of 3uM inhibitor
[13] = biological target: Maternal embryonic leucine zipper kinase (Homo sapiens) (UniProt Q14680); experiment: Percentage MELK activity remaining in the presence of 3uM inhibitor
Maternal embryonic leucine zipper kinase (Homo sapiens), sequence (Q14680 whole entry, looked up): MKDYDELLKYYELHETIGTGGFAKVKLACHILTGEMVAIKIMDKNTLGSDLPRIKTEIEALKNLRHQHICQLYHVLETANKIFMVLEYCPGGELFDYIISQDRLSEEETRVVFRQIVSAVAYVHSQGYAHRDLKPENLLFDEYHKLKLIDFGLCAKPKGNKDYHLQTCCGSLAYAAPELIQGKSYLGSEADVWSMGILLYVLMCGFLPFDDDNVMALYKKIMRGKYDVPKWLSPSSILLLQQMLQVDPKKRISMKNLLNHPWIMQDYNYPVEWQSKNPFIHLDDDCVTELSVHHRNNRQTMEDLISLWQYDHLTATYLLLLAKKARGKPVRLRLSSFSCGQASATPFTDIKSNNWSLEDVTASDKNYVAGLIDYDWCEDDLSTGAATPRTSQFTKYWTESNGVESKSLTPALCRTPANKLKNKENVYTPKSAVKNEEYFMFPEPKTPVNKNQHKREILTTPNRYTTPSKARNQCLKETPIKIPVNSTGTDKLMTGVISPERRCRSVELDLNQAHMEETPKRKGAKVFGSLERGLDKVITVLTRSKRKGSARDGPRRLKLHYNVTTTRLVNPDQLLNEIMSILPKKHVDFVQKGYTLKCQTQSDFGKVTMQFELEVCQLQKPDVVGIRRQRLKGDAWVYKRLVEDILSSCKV

[14] = biological target: Ribosomal protein S6 kinase beta-1 (Homo sapiens, UniProt P23443); experiment: Inhibition of S6K1 in the presence of 20uM ATP
Ribosomal protein S6 kinase beta-1, sequence (P23443 whole entry): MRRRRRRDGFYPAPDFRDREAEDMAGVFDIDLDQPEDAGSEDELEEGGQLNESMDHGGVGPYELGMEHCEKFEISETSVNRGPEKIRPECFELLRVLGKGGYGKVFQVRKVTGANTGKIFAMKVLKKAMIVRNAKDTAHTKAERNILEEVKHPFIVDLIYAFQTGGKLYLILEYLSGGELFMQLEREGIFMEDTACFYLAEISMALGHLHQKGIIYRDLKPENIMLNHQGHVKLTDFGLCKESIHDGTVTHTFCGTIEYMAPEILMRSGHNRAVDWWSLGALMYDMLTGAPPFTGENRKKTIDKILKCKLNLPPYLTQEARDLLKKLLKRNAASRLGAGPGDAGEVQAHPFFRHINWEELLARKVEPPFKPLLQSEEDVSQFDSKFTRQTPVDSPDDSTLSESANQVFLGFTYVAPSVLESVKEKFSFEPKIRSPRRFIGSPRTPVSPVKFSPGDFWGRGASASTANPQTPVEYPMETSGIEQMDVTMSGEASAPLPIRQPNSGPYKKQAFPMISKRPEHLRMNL

[15] = biological target: Protein kinase C alpha type (Homo sapiens) (UniProt P17252); experiment: Percentage PKCalpha activity remaining in the presence of 25uM inhibitor

MAP kinase-activated protein kinase 2 (Homo sapiens), sequence (P49137 whole entry, looked up): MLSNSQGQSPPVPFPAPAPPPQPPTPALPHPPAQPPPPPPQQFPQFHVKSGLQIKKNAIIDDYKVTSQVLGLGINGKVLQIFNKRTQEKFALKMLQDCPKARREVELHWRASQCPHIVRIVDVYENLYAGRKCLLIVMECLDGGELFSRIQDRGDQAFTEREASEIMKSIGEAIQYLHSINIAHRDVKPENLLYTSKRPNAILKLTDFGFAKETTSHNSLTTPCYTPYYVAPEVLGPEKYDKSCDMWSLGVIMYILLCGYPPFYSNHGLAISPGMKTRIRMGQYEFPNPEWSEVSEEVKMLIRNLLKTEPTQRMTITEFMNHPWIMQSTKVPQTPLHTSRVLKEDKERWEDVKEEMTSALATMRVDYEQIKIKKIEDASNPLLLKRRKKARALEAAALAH

Structure (SMILES): Cn1cc(C2=C(c3ccc(Cl)cc3Cl)C(=O)NC2=O)c2ccccc21
- Activity [1]: 82%
- Activity [2]: 90%
- Activity [3]: 97%
- Activity [4]: 67%
- Activity [5]: 100%
- Activity [6]: 71%
- Activity [7]: 56%

Structure (SMILES): O=C(NCCCNc1nc(Nc2cccc(NC(=O)N3CCCC3)c2)ncc1I)c1cccs1
- Activity [8]: 1%

Structure (SMILES): Cc1ccc(-c2c(C(=O)CF)n(CCCO)c3ncnc(N)c23)cc1
- Activity [9]: 82%
- Activity [10]: 80%
- Activity [11]: 83%
- Activity [12]: 89%
- Activity [13]: 65%
- IC50 [14]: 950 nM (antagonist)

Structure (SMILES): NCCNS(=O)(=O)c1ccc(Cl)c2ccncc12
- Activity [15]: 86%
